# Values quoted from earlier work in US11911501B1, “Biocompatible resin composition and method of manufacturing dissolvable microneedles for transdermal delivery using biocompatible resin” (Florida A&M University, priority 2020, dated 2024).
# Tested on: clonal SV 40 large T-antigen transfected human pulp-derived cells (tHPC)
# Conditions: reference [1]
smiles,measurement,value
"Cc1cc(C)c(C(=O)P(=O)(c2ccccc2)c2ccccc2)c(C)c1 [TPO, diphenyl(2,4,6-trimethylbenzoyl)phosphine oxide]",toxicity,cause toxicity
